The values below come from patent publication US5739161A, “Agent for treating hepto.biliary diseases” (priority 1994, dated 1998).

The test system of one data set is hepatocyte. The settings on record: cited from earlier work.
Data set [1] in a line: observation of diarrhea and loose feces in the rats. It is filed as in vivo, rat (Crj: Wister). The conditions noted are these: rat, oral. The method, then: (§1) Crj: Wister rats (7 weeks old, weight: 220-250 g) were kept without food for 16 hours, and hydrochloric acid-D-galactosamine 800 mg/kg was administrated by intra peritonealy injection in order to elicit acute hepatopathy model. After 24 hours from the administration of galactosamine, blood sample was collected under ether anesthesia and a serum was separated. The serum was assayed for serum biochemical profile of liver function test by an automatic analyzer (AU 550 available Orympus Kogaku Kogyo K.K.).
(§2) Test compound was dissolved in 0.5% ethanol physiological saline, which was orally administered by force using an oral sonde for rat at 30 minutes before, 2 hours and 6 hours after the administration of the galactosamine.
The generation of a diarrhea and a loose feces observed up to 2 hours after the 3rd administration of the test compounds, and the number of the rats having diarrhea or loose feces were recorded.
(§3) This test was carried out according the same manner as in the Example 1 providing the following compounds were used as test compounds.
(§4) This test was carried out according the same manner as in the Example 1 using the following compounds as test compounds.
(§5) This test was carried out according the same manner as in the Example 1 excepting the following compounds were used as test compounds.

Data set [2] relates to acute hepatopathy model (galactosamine-elicited). Nature of the data set: D-galactosamine acute hepatopathy model in rats, serum biochemical liver function test (inhibiting ratio). The settings on record: rat, oral; for inhibition in vivo at 0.03 mg/kg / inhibition in vivo at 0.1 mg/kg / inhibition in vivo at 1 mg/kg / inhibition in vivo at 0.01 mg/kg: 24 h; for inhibition in vivo at 0.01 mg/kg: 10 μg/kg × 3. In kind it is in vivo, rat (Crj: Wister). The method, then:
as §1, §2
The following four items were tested for the serum biochemical liver function test: glutamic oxaloacetic transaminase (GOT), glutamic pyruvic transaminase (GPT) lactate dehydrogenase (LDH)
The inhibiting Ratio (%) was obtained by the results of the serum biochemical profile of liver functional test how much the increases in the above four items by the administration of galactosamine was inhibited by the test compounds. The Inhibiting, Ratio (%) was calculated by the following equation: [formula] (All of the data in the equation are represented by average) […]
as §3, §4, §5

Setting [3] is: 30 μg/kg × 3, up to 2 hours after 3rd administration.
The mark [4] stands for this setting: 30 μg/kg × 3, read-out: inhibiting ratio GOT.
The mark [5] stands for this setting: 30 μg/kg × 3, read-out: inhibiting ratio GPT.
[6] abbreviates: 30 μg/kg × 3, read-out: inhibiting ratio T-Bil.
Setting [7] is: 100 μg/kg × 3, up to 2 hours after 3rd administration.
Setting [8] is: 100 μg/kg × 3, read-out: inhibiting ratio GOT.
Where [9] appears, read: 100 μg/kg × 3, read-out: inhibiting ratio GPT.
[10] abbreviates: 100 μg/kg × 3, read-out: inhibiting ratio T-Bil.
Where [11] appears, read: 1000 μg/kg × 3, up to 2 hours after 3rd administration.
The mark [12] stands for this setting: 1000 μg/kg × 3, read-out: inhibiting ratio GOT.
Where [13] appears, read: 1000 μg/kg × 3, read-out: inhibiting ratio GPT.
Where [14] appears, read: 1000 μg/kg × 3, read-out: inhibiting ratio T-Bil.
Setting [15] is: 10 μg/kg × 3, up to 2 hours after 3rd administration.
The mark [16] stands for this setting: read-out: inhibiting ratio T-Bil.

Read-outs that look alike come from different tables or passages of the source.

As to `CCCCC[C@@](C)(O)/C=C/[C@H]1[C@H](O)CC(=O)[C@@H]1C/C=C\CCCC(=O)O` [15-methyl-PGE2], the hepatocyte protecting activity result with hepatocyte is recorded as “have a hepatocyte protecting activity”.

Regarding `CCCCC(C)(C)[C@H](O)/C=C/[C@H]1[C@H](O)CC(=O)[C@@H]1C/C=C\CCCC(=O)O` [16,16-dimethyl-PGE2], in the data set on hepatocyte, the hepatocyte protecting activity entry is recorded as “have a hepatocyte protecting activity”.

As to `CCCCC(F)(F)C(=O)CC[C@H]1[C@H](O)CC(=O)[C@@H]1C/C=C\CCCC(=O)O` [Test Compound 1, 13,14-dihydro-15-keto-16,16-difluoro-PGE2, reference compound], the “diarrhea / loose feces (number of rats having diarrhea or loose feces)” value (“diarrhea / loose feces” for short) in data set [1] (setting [3]) was 3/10. The inhibition in vivo at 0.03 mg/kg came to 28% in data set [2] (setting [4]), 42% in data set [2] (setting [5]) and 82% in data set [2] (setting [6]). Further, the “inhibiting ratio LDH” value in data set [2] (30 μg/kg × 3) is 22%.

For the compound `CC(C)CCC(F)(F)C(=O)CC[C@H]1[C@H](O)CC(=O)[C@@H]1C/C=C\CCCC(=O)O` [Test Compound 2, Z-7-[(1R,2R,3R)-2-(4,4-difluoro-7-methyl-3-oxooctyl)-3-hydroxy-5-oxocyclopentyl]hept-5-enoic acid], the “diarrhea / loose feces” value in data set [1] (setting [3]) is recorded as “no diarrhea was observed in every rat”. Further, the results for the inhibition in vivo at 0.03 mg/kg in data set [2] (setting [4]), in data set [2] (setting [5]) and in data set [2] (setting [6]) were 29%, 36% and 51%, respectively. Further, the “inhibiting ratio LDH” value in data set [2] (30 μg/kg × 3) was found to be 32%.

With `CCCCC(F)(F)C(=O)CC[C@H]1[C@H](O)CC(=O)[C@@H]1CCCCCCC(=O)O` [Test Compound 3, 13,14-dihydro-15-keto-16,16-difluoro-PGE1, reference compound], the “diarrhea / loose feces” value in data set [1] (setting [7]) is reported as 1/6. Further, the “loose feces (number of rats)” value in data set [1] (setting [7]) is listed as 2/6. Besides, the results for the inhibition in vivo at 0.1 mg/kg in data set [2] (setting [8]), in data set [2] (setting [9]) and in data set [2] (setting [10]) were 63%, 76% and 80%, respectively. Further, the “inhibiting ratio LDH” value in data set [2] (100 μg/kg × 3) amounted to 61%.

Take `CCC[C@@H](C)C(F)(F)C(=O)CC[C@H]1[C@H](O)CC(=O)[C@@H]1CCCCCCC(=O)O` [Test Compound 4, 7-[(1R,2R,3R)-2-{4,4-difluoro-5(R)-methyl-3-oxooctyl}-3-hydroxy-5-oxocyclopentyl]heptanoic acid]: in data set [1] (setting [7]), the “diarrhea / loose feces” value was “no diarrhea in any cases”. For the same compound, the inhibition in vivo at 0.1 mg/kg in data set [2] (setting [8]) stood at 54%; in data set [2] (setting [9]), 57%; in data set [2] (setting [10]) it was 89%. The “inhibiting ratio LDH” value in data set [2] (100 μg/kg × 3) was determined as 51%.

`CC(C)CCC(F)(F)C(=O)CC[C@H]1[C@H](O)CC(=O)[C@@H]1CCCCCCC(=O)O` [Test Compound 5, 7-[(1R,2R,3R)-2-(4,4-difluoro-7-methyl-3-oxooctyl)-3-hydroxy-5-oxocyclopentyl]heptanoic acid]: the “diarrhea / loose feces” value in data set [1] (setting [7]) is “no diarrhea in any cases”. Also, the inhibition in vivo at 0.1 mg/kg was 51% in data set [2] (setting [8]), 66% in data set [2] (setting [9]) and 72% in data set [2] (setting [10]). For the same compound, the “inhibiting ratio LDH” value in data set [2] (100 μg/kg × 3) stood at 59%.

Take `CC(C)C[C@@H](C)C(F)(F)C(=O)CC[C@H]1[C@H](O)CC(=O)[C@@H]1CCCCCCC(=O)O` [Test Compound 6, 7-[(1R,2R,3R)-2-{4,4-difluoro-5(R),7-dimethyl-3-oxooctyl}-3-hydroxy-5-oxocyclopentyl]heptanoic acid]: the “diarrhea / loose feces” value in data set [1] (setting [11]) was “no diarrhea”. The inhibition in vivo at 1 mg/kg in data set [2] (setting [12]) came out at 60%; in data set [2] (setting [13]), 71%; in data set [2] (setting [14]) it was 88%. Besides, in data set [2] (1000 μg/kg × 3), the “inhibiting ratio LDH” value was found to be 63%.

`CC(C)CCC(F)(F)C(=O)CC[C@H]1CCC(=O)[C@@H]1CCCCCCC(=O)O` [Test Compound 7, 7-[(1R,2R)-2-(4,4-difluoro-7-methyl-3-oxooctyl)-5-oxocyclopentyl]heptanoicacid]: the “diarrhea / loose feces” value in data set [1] (setting [11]) is listed as “no diarrhea”. The inhibition in vivo at 1 mg/kg in data set [2] (setting [12]) came out at 52%; in data set [2] (setting [13]), 63%; in data set [2] (setting [14]), 86%. Further, the “inhibiting ratio LDH” value in data set [2] (1000 μg/kg × 3) is listed as 62%.

`CCC[C@H](C)C(F)(F)C(=O)CC[C@H]1[C@H](O)CC(=O)[C@@H]1CCCCCCC(=O)O` [Test Compound 8]: the “diarrhea / loose feces” value in data set [1] (setting [11]) is “no diarrhea”. The figures for the inhibition in vivo at 1 mg/kg in data set [2] (setting [12]), in data set [2] (setting [13]) and in data set [2] (setting [14]) were 59%, 56% and 92%, respectively. For the same compound, the “inhibiting ratio LDH” value in data set [2] (1000 μg/kg × 3) was 63%.

For the compound `CC[C@H](C)CC(F)(F)C(=O)CC[C@H]1[C@H](O)CC(=O)[C@@H]1CCCCCCC(=O)O` [Test Compound 9, 7-[(1R,2R,3R)-2-{4,4-difluoro-6(S)-methyl-3-oxooctyl}-3-hydroxy-5-oxocyclopentyl]heptanoic acid], the “diarrhea / loose feces” value in data set [1] (setting [7]) and in data set [1] (setting [11]) was “non” each time. The inhibition in vivo at 0.1 mg/kg in data set [2] (setting [8]) was 44%; in data set [2] (setting [9]), 54%; in data set [2] (setting [10]), 80%. For the same compound, the inhibition in vivo at 1 mg/kg in data set [2] (setting [12]) turned out to be 84%; in data set [2] (setting [13]) it was 88%; in data set [2] (setting [14]), 95%.

On to `CCC[C@@H](C)C(F)(F)C(=O)CC[C@H]1CCC(=O)[C@@H]1CCCCCCC(=O)O` [Test Compound 10, 7-[(1R,2R)-2-{4,4-difluoro-5(R)-methyl-3-oxooctyl}-5-oxocyclopentyl]heptanoic acid], for which the “diarrhea / loose feces” value in data set [1] (setting [7]) is recorded as “non”. Moreover, the inhibition in vivo at 0.1 mg/kg is 36% in data set [2] (setting [8]), 39% in data set [2] (setting [9]) and 59% in data set [2] (setting [10]).

Consider `CC[C@@H](C)CC(F)(F)C(=O)CC[C@H]1[C@H](O)CC(=O)[C@@H]1CCCCCCC(=O)O` [Test Compound 11, 7-[(1R,2R,3R)-2-{4,4-difluoro-6(R)-methyl-3-oxooctyl}-3-hydroxy-5-oxocyclopentyl]heptanoic acid], for which the “diarrhea / loose feces” value in data set [1] (setting [15]) was “non”. The inhibition in vivo at 0.01 mg/kg was 45% in data set [2] (read-out: inhibiting ratio GOT), 34% in data set [2] (read-out: inhibiting ratio GPT) and 56% in data set [2] (setting [16]).

As to `CC(C)CC(F)(F)C(=O)CC[C@H]1[C@H](O)CC(=O)[C@@H]1CCCCCCC(=O)O` [Test Compound 12, 7-[(1R,2R,3R)-2-(4,4-difluoro-6-methyl-3-oxoheptyl)-3-hydroxy-5-oxocyclopentyl]heptanoic acid], in data set [1] (setting [7]), the “diarrhea / loose feces” value was “non”. Also, the inhibition in vivo at 0.1 mg/kg in data set [2] (setting [8]) stood at 38%; in data set [2] (setting [9]) it was 40%; in data set [2] (setting [10]), 69%.

In the case of `CCC(CC)CC(F)(F)C(=O)CC[C@H]1[C@H](O)CC(=O)[C@@H]1CCCCCCC(=O)O` [Test Compound 13, 7-[(1R,2R,3R)-2-(4,4-difluoro-6-ethyl-3-oxooctyl)-3-hydroxy-5-oxocyclopentyl]heptanoic acid], in data set [1] (setting [15]), the “diarrhea / loose feces” value is on record as “non”. For the same compound, the results for the inhibition in vivo at 0.01 mg/kg in data set [2] (read-out: inhibiting ratio GOT), in data set [2] (read-out: inhibiting ratio GPT) and in data set [2] (setting [16]) were 47%, 42% and 75%, respectively.
